# Data: patent publication US20260284214A1, “EXATECAN DERIVATIVE AND ANTIBODY-DRUG CONJUGATE THEREOF” (priority 2023, published 2026)
# Read-outs that look alike come from different tables or passages of the source. Marks after values point to notes of the source that are not given here.
# Tests used:
# SD rats = assay: Toxicity comparison after repeated administration to SD rats for 7 days (hematology); type: in vivo; settings: 0.1 mg/kg iv for 7 consecutive days, end of study
# Method: SD rats were taken as test animals to study toxic reactions after intravenous injection of the compounds of the present disclosure to male and female SD rats at a dosage of 0.1 mg/kg for 7 consecutive days.
# • Species: male and female SD rats (5 female rats and 5 male rats/group) • Grade: SPF grade • Weight: ♂ 252.0-287.4 g and ♀ 185.7-224.3 g • Age: 8-12 weeks • Source: Zhejiang Vital River Laboratory Animal Technology Co., Ltd.
# Male and female SD rats were injected with the test sample solution, and Compound 2 of the example and the Dxd were given in a dosage of 0.1 mg/kg and a dosage volume of 10 mL/kg.
# Preparation of test sample solution: the test sample was dissolved with a solvent (5% DMSO+95% Solutol HS-15 in water).
# About 0.2 mL of blood was collected from the jugular sinus of the animals into an anticoagulant tube containing an anticoagulant (EDTA-K2) on D3 after administration, and all to-be-dissected animals were fasted for about 12 hours on the eve of D8 before dissection. Dying animals were euthanized, about 2 mL of blood was collected from abdominal aorta into an anticoagulant tube containing an anticoagulant (EDTA-K2) at the time of dissection, and hematological indexes were detected by a Sysmex XN-1000 hemocytometer. Specific detection indexes were as follows.
# hERG potassium channel = hERG potassium channel (Homo sapiens, UniProt Q12809); assay: hERG experiment, manual patch clamp; type: cell-based; settings: HEK-293 cells stably expressing hERG; for inhibition at 10 µM: human, read-out: hERG current inhibition rate % (Mean ± SE, n = 2)
# Method: Inhibitory effects of the compound of Example 2, the compound of Example 3 and Dxd on an hERG potassium channel were studied by a manual patch clamp technique (a gold standard of hERG safety evaluation), and the risk of ventricular repolarization toxicity caused was evaluated.
# The weighed test sample was prepared into a 10 mM stock solution with DMSO, and then the stock solution of the test object was diluted into 3.33 mM intermediate dilution with DMSO. Then, 30 μL of the dilution was added into 10 mL of extracellular fluid to prepare 10 μM working solution, it was ensured that a DMSO content was 0.3%, then 50 μL of F68 was added to the extracellular fluid to enhance a solubility of the test object, and an F68 concentration was 0.5%. Solutions at all concentrations were subjected to ultrasound treatment for 20 minutes. The solubility of the sample was visually observed, and there was no visible precipitation in the 10 μM to-be-tested solution of the test object.
# An HEK-293 cell line stably expressing the hERG potassium channel was adopted, and hERG potassium channel cells were purchased from Creacell Company (article number: A-0320). Cell culture method:
# The HEK-293 cell line stably expressing the hERG potassium channel was cultured in a DMEM culture medium containing 10% fetal bovine serum and 0.8 mg/mL G418 at a culture temperature of 37° C. under a carbon dioxide concentration of 5%.
# Cell passage: the old culture medium was removed, and the cells were washed once with PBS, then 1 mL of TrypLE™ Express solution was added, and the mixture was incubated at 37° C. for about 0.5 minutes. When the cells were separated from a dish bottom, about 5 mL of complete culture medium preheated at 37° C. was added. A cell suspension was gently blown with a straw to separate the aggregated cells. The cell suspension was transferred to a sterile centrifuge tube and centrifuged at 1000 rpm for 5 minutes to collect the cells. […]
# An inhibitory effect of the test object on the hERG channel was detected by the manual patch clamp technique.
# BxPC-3 cells = assay: Cell inhibitory activity experiment of cytotoxic drug (CellTiter-Glo, 72 hours); type: cell-based, human
# Method: (§1) Human pancreatic adenocarcinoma cells BxPC-3 (ATCC, article number: CRL-1687) and human pharyngeal squamous cell carcinoma cells FaDu (ATCC, article number: HTB-43) were washed with PBS, then the cells were digested with 0.25% Trypsin-EDTA trypsin for about 3 minutes, and the digestion was terminated with a complete cell culture medium. The cells were centrifuged at 1000 rpm for 5 minutes, the supernatant was discarded, and the cells were resuspended with a complete cell culture medium, counted by a cell counter, and adjusted to a required density. Each well was added with 50 μL of the cell suspension according to 3000 cells per well, and the cell plate was placed into a 5% CO2 cell incubator at 37° C. to incubate the cells for 12-16 hours.
# (§2) The cell plate was taken out of the incubator to observe a cell adhesion state, and after cell adhesion, each well was added with 50 μL of the sample (starting from 10 μM, diluted 5 times, 9 concentrations), shaken gently, and then placed into an incubator to incubate the cells for 72 hours. Each well was added with a Cell Titer-GLO™ (Promega, article number: G7572) working solution according to 100 μL/well and shaken gently to lyse the cells, and the plate was read on a microplate reader.
# (§3) Data analysis: a graph was made by GraphPad Prism 7.0 software with a Log value of a sample concentration as an abscissa and Cytotoxicity % as an ordinate, and data were subjected to Nonlinear regression (curve fit) analysis to obtain an IC50 value of each compound.
# FaDu cells = assay: as above; type: cell-based, human
# Method: as §1, §2, §3
# Sequence of hERG potassium channel (Q12809 whole entry): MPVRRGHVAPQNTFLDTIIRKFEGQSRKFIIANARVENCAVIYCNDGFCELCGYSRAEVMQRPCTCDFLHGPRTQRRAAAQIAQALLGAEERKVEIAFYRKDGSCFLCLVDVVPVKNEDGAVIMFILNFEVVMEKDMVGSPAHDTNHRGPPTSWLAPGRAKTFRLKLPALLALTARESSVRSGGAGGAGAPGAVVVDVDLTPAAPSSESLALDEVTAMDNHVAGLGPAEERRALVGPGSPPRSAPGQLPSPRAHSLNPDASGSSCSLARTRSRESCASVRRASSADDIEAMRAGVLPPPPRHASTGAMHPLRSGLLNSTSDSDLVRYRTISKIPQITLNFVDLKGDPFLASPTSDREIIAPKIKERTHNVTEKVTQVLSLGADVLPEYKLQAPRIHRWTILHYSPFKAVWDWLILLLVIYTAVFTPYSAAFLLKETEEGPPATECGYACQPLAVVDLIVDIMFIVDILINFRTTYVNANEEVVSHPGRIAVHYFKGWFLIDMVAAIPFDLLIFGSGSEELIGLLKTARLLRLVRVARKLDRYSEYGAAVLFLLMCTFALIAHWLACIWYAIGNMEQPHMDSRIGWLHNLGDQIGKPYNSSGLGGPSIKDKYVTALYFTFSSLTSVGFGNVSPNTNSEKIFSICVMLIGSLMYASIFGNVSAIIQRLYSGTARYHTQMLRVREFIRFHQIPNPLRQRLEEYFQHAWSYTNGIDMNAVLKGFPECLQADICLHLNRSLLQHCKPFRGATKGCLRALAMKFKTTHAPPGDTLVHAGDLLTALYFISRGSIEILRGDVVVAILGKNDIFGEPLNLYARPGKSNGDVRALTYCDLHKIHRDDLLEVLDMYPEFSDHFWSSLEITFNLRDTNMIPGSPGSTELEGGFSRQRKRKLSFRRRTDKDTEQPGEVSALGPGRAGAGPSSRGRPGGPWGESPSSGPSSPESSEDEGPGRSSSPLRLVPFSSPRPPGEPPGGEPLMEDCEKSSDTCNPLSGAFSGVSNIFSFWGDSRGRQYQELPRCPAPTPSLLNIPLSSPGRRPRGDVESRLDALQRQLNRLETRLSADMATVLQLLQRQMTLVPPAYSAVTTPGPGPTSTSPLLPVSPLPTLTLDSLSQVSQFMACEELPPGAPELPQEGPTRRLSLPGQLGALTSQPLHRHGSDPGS
SMILES,"#MONO, change compared with the control group (SD rats; ♀ SD rats)","#RETIC, change compared with the control group (SD rats; ♀ SD rats)","HCT, change compared with the control group (SD rats; ♀ SD rats)","HGB, change compared with the control group (SD rats; ♀ SD rats)","RBC, change compared with the control group (SD rats; ♀ SD rats)","#EOS, change compared with the control group (SD rats; ♂ SD rats)","#MONO, change compared with the control group (SD rats; ♂ SD rats)","#NEUT, change compared with the control group (SD rats; ♂ SD rats)","#RETIC, change compared with the control group (SD rats; ♂ SD rats)",inhibition at 10 µM (hERG potassium channel),other results
CC[C@@]1(O)C(=O)OCc2c1cc1n(c2=O)Cc2c-1nc1cc(F)c(C)c3c1c2[C@@H](NC(=O)CO)CC3 [Dxd],−71.3%**,−96.9%**,−15.8%**,−12.7%**,−13.4%**,−70.2%*,−77.2%**,−66.9%**,−95.5%*,10.3%,"#EOS, change compared with the control group (SD rats; ♀ SD rats): −84.44%**; #LUC, change compared with the control group (SD rats; ♀ SD rats): −66.9%**; #NEUT, change compared with the control group (SD rats; ♀ SD rats): −66.1%*; MCHC, change compared with the control group (SD rats; ♀ SD rats): 3.6%**; WBC, change compared with the control group (SD rats; ♀ SD rats): −47.6%*; #BASO, change compared with the control group (SD rats; ♂ SD rats): −82.1%*; HCT, change compared with the control group (SD rats; ♂ SD rats): −15.7%**; HGB, change compared with the control group (SD rats; ♂ SD rats): −12.8%**; MCHC, change compared with the control group (SD rats; ♂ SD rats): 3.2%**; RBC, change compared with the control group (SD rats; ♂ SD rats): −15.3%**"
C#CCN(CCO)C(=O)N[C@H]1CCc2c(C)c(F)cc3nc4c(c1c23)Cn1c-4cc2c(c1=O)COC(=O)[C@]2(O)CC [Example 2],−54.1%**,−86.4%**,−12.0%**,−10.7%**,−10.9%**,−71.4%**,−68.3%**,−72.2%**,−87.3%**,,"hERG current inhibition rate % (Mean ± SE, n = 2) (hERG potassium channel; 10 μM): 2.89% ± 1.86%; IC50 (BxPC-3 cells): 0.96 nM; IC50 (FaDu cells): 1.49 nM"
"C=CCN(CCO)C(=O)N[C@H]1CCc2c(C)c(F)cc3nc4c(c1c23)Cn1c-4cc2c(c1=O)COC(=O)[C@]2(O)CC [Example 3, 1-allyl-3-((1S,9S)-9-ethyl-5-fluoro-9-hydroxy-4-methyl-10,13-dioxo-2,3,9,10,13,15-hexahydro-1H,12H-benzo[de]pyrano[3′,4′:6,7]indolizino[1,2-b]quinolin-1-yl)-1-(2-hydroxyethyl)urea]",,,,,,,,,,15.8%,IC50 (BxPC-3 cells; Homo sapiens): 0.76 nM; IC50 (FaDu cells; Homo sapiens): 1.09 nM
